In publication PMC4111603 (PLoS ONE, 2014):
Where two headings read alike, the source gives them in different places.

What was measured:
µ-opoid receptors = conditions: cited from earlier work
[1] = cited from earlier work
[2] = biological target: fatty acid amide hydrolase (FAAH); conditions: cited from earlier work
[3] = cited from earlier work; for urinary recovery: 24 h after administration of 400 mg of ibuprofen
COX-2 [4] = conditions: read-out: IC50, AA oxygenation by COX-2; cited from earlier work
rat brain FAAH = biological target: T1, rat brain FAAH (Rattus norvegicus, UniProt P97612); test: FAAH hydrolysis of [3H]AEA in rat brain homogenates; type: biochemical; conditions: 0.5 µM AEA; for inhibition at 1000 µM: read-out: % inhibition of [3H]AEA hydrolysis @ 1000 µM, 1000 µM compound
T1 construct: FAAH activity was quantified by measuring hydrolysis of tritium labelled AEA in rat brain homogenates; from tissue; host or cells: rat brain (minus cerebella), Wistar or Sprague-Dawley, washed membrane pellets
T1 sequence (P97612 1-579): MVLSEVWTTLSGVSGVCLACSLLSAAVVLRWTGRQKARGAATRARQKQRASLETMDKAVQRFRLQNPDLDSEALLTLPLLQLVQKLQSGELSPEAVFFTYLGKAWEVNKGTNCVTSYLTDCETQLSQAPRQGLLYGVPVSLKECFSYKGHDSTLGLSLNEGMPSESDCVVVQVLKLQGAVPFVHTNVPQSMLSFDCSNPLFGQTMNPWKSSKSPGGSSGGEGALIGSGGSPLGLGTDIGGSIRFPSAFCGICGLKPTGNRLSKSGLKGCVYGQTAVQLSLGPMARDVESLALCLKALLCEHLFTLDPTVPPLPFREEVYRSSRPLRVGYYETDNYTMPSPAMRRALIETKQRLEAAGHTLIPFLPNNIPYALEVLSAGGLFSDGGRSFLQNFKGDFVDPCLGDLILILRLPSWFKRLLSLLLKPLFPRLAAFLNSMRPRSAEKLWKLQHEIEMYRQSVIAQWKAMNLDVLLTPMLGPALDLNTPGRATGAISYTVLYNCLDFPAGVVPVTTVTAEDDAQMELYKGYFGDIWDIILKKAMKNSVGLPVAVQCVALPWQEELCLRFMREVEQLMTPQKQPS
Description: Brains (minus cerebella) from adult Wistar or Sprague-Dawley stored at −80°C were thawed, weighed and homogenized in cold buffer (20 mM HEPES, 1 mM MgCl2 pH 7.0). Homogenates were centrifuged at 35,000 g at 4°C for 20 min and the pellet was resuspended in homogenization buffer (repeated twice) before being incubated at 37°C for 15 min to degrade any endogenous substrate that might interfere with the FAAH assay. Following centrifugation, the pellets were resuspended in cold buffer (50 mM Tris-HCl, 1 mM EDTA, 3 mM MgCl2, pH 7.4). The protein concentration of each homogenates was determined according to the Bradford assay after which the samples were frozen in aliquots at −80°C until used for FAAH assay. Ethical permission for the animal experiments was obtained from the local animal research ethical committee (Umeå Ethical Committee for Animal Research, Umeå, Sweden).
The assay was performed according to Boldrup et al.. Homogenates (1 µg protein per assay) diluted in 10 mM Tris-HCl, 1 mM EDTA, pH 7.4 or pH 5.1 were mixed with test substance dissolved in DMSO (total concentration in assay 5%) at an ambient temperature of 4°C. Reactions were initiated by addition of AEA-[^3H] (assay concentration 0.5 µM) in 10 mM Tris-HCl, 1 mM EDTA, pH 7.4 containing 10 mg ml^−1 fatty acid-free bovine serum and incubation at 37°C which was allowed to proceed for 10 min. […] Blank samples contained buffer instead of homogenate and DMSO (5%). The assay volume of each sample was 200 µl. The pH values given in the text were determined by measurement at 37°C of scaled-up mixtures of homogenization and assay buffers. The reaction was terminated by addition of 400 µl activated charcoal (80 µl activated charcoal +320 µl 0.5 M HCl) and placement of samples on ice. Samples were kept in room temperature for 45–60 min before being centrifuged at 2500 rpm for 10 min. Aliquots (200 µl) of the supernatant was analyzed for tritium content by liquid scintillation with quench correction.
(§1) FAAH inhibition was calculated using log(inhibitor) vs. response with variable slope (four parameters) algorithm in the GraphPad Prism computer program (GraphPad Software Inc., San Diego, CA. USA). […] The two curves were compared by Akaike’s informative criteria and the best fit was chosen. Initial COX activities were calculated as the change in oxygen tension between 10 and 30 seconds after addition of enzyme.

COX-2 [5] = conditions: read-out: IC50, 2-AG oxygenation; cited from earlier work
COX-1 = tested on: COX-1; set-up: method as in PMID 24120370; conditions: read-out: IC50, AA oxygenation by COX-1; cited from earlier work
Ovine COX-1 = biological target: T2, Ovine COX-1 (Ovis aries, UniProt P05979); test: COX-1 oxygenation of arachidonic acid, oxygen electrode; type: biochemical; conditions: for COX-1 activity (% of control): 10 µM AA, initial activity 10-30 s, mean ± s.e.m., n = 3; for inhibition at 300 µM: 300 µM compound, read-out: inhibition of COX-1-catalysed oxygenation of arachidonic acid
T2 construct: purchased Cayman Chemical Co. 60100
T2 sequence (P05979 25-600): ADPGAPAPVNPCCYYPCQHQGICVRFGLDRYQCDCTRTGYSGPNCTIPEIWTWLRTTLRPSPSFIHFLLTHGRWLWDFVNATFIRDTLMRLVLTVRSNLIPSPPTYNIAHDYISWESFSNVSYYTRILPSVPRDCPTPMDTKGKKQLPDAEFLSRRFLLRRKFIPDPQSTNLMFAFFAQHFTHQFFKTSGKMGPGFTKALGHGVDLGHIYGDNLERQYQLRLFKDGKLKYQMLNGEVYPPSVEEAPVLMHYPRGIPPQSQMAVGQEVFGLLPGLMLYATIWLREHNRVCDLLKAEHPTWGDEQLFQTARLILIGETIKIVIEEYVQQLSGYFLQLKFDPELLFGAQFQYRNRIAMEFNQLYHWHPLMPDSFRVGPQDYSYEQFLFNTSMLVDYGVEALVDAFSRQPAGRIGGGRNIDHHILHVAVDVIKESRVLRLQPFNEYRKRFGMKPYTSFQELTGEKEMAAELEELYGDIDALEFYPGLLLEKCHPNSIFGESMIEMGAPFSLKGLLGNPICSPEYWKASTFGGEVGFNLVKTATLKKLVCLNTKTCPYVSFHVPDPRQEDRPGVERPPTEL
Description: (§2) The assay was performed according to Meade et al. with minor modifications using an oxygen electrode chamber with integral stirring (Oxygraph System, Hansatech Instruments, King’s Lynn, U.K.). The electrode was calibrated to ambient temperature and air pressure. Samples were prepared in 0.1 M Tris-HCl buffer pH 7.4 containing 1 µM haematin, 2 mM phenol, 5 mM EDTA, 10 µM substrate (AA or 2-AG) (final assay volume was 2 ml). After addition of test substance dissolved in DMSO (final assay concentration 1%) a baseline was established for 5 min before initiation of reaction by addition of 200 units COX-1 or COX-2. Change in oxygen consumption was monitored for approximately 5 min.
as §1

human recombinant COX-2 [6] = biological target: T3, human recombinant COX-2 (Homo sapiens, UniProt P35354); test: COX-2 oxygenation of 2-AG, oxygen electrode; type: biochemical; conditions: for COX-2 activity (% of control): substrate 2-AG 10 µM, initial activity 10-30 s, n = 3
T3 construct: purchased Cayman Chemical Co. 60122
T3 sequence (P35354 18-604): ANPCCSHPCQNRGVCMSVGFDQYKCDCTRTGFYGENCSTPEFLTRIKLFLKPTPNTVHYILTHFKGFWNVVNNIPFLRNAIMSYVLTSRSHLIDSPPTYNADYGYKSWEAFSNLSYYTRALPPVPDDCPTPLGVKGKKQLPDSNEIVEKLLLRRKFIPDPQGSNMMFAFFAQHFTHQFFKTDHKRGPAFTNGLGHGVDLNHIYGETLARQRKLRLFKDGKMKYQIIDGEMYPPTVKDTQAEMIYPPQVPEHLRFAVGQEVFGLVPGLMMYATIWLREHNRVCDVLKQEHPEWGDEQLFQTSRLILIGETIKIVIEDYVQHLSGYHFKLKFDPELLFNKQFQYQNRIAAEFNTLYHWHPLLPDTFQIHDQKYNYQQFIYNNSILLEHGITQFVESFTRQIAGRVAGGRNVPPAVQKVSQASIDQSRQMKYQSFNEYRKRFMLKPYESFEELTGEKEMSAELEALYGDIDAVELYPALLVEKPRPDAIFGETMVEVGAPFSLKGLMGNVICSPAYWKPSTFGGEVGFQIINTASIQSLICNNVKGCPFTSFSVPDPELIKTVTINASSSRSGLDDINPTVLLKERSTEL
Description: as §2, §1

human recombinant COX-2 [7] = biological target: T3, human recombinant COX-2; test: COX-2 oxygenation of arachidonic acid, oxygen electrode; type: biochemical; conditions: for COX-2 activity (% of control): substrate AA 10 µM, initial activity 10-30 s, n = 3
Description: as §2, §1

FAAH = tested on: FAAH; set-up: method as in PMID 16997568; conditions: pH 6 and 8; rat brain homogenates; cited from earlier work
NAAA = tested on: NAAA; set-up: method as in PMID 16154384; conditions: cited from earlier work
[8] = pH 6.0, read-out: IC50, inhibition of [3H]AEA hydrolysis (converted)
[9] = pH 6.0, read-out: pI50, inhibition of [3H]AEA hydrolysis (converted)

CN1CC[C@]23c4c5ccc(O)c4O[C@H]2[C@@H](O[C@@H]2O[C@H](C(=O)O)[C@@H](O)[C@H](O)[C@H]2O)C=C[C@H]3[C@H]1C5 [6-glucuronide metabolite of morphine]
potency relative to parent drug (morphine) (µ-opoid receptors): 2–4 times

CC(C)Cc1ccc(C(C)C(=O)O)cc1 (racemic) [Ibuprofen, (±)-2-(4-Isobutylphenyl)propanoic acid]
peak plasma concentration ([1]; 200 mg single doses of two different ibuprofen preparations): 110 to 150 µM
IC50 ([2]; read-out: potency, inhibition of AEA hydrolysis by FAAH): 270 µM
urinary recovery [3]: 11%

Cc1cccnc1NC(=O)C(C)c1ccc(CC(C)C)cc1 (stereo not drawn)
potency as FAAH inhibitor at pH 6 versus pH 8 [2]: slightly less potent inhibitor of FAAH at pH 6 than at pH 8

CC(C(=O)O)c1ccc(-c2ccccc2)c(F)c1 (racemic) [Flurbiprofen, (±)-2-flouro-α-methyl(1,1′-biphenyl)-4-acetic acid, reference compound]
IC50 (rat brain FAAH; [8]): 28 µM
IC50 (rat brain FAAH; [9]): 27.5 µM
IC50 (rat brain FAAH; pH 7.3, read-out: IC50, inhibition of [3H]AEA hydrolysis (converted)): 51 µM
IC50 (rat brain FAAH; pH 7.3, read-out: pI50, inhibition of [3H]AEA hydrolysis (converted)): 51.3 µM
inhibition of COX-1 (Ovine COX-1; 30 µM compound): Complete inhibition
share of the dose recovered in the urine ([3]; flurbiprofen 50 mg a day for 10 consecutive days): 23%

CC(C(=O)O)c1ccc(C(O)C(C)C)cc1 (stereo not drawn) [1′-OH-Ibuprofen, 2-[4-(1-hydroxy-2-methylpropyl)phenyl]propionic acid]
IC50 (rat brain FAAH; [8]): 340 µM
IC50 (rat brain FAAH; [9]): 339 µM
inhibition at 1000 µM (rat brain FAAH; pH 7.3): 47 ± 0.8%
COX-2 activity (% of control) (human recombinant COX-2 [6]; 100 µM NSAID): 103±22 % of control
COX-2 activity (% of control) (human recombinant COX-2 [6]; 300 µM NSAID): 108±15 % of control
COX-2 activity (% of control) (human recombinant COX-2 [7]; 100 µM NSAID): 91±8 % of control
COX-2 activity (% of control) (human recombinant COX-2 [7]; 300 µM NSAID): 59±13 % of control
COX-1 activity (% of control) (Ovine COX-1; 100 µM NSAID): 112±21 % of control
COX-1 activity (% of control) (Ovine COX-1; 300 µM NSAID): 81±21 % of control
inhibition at 300 µM (Ovine COX-1): 19%
COX-1 activity (% of control) (Ovine COX-1; 1000 µM NSAID): 102±18 % of control

CC(Cc1ccc(C(C)C(=O)O)cc1)C(=O)O (stereo not drawn) [Carboxyibuprofen, 2-[4-(2-carboxypropyl)phenyl]propionic acid]
IC50 (rat brain FAAH; [8]): 410 µM
IC50 (rat brain FAAH; [9]): 417 µM
inhibition at 1000 µM (rat brain FAAH; pH 7.3): 31 ± 4%
COX-2 activity (% of control) (human recombinant COX-2 [6]; 100 µM NSAID): 105±19 % of control
COX-2 activity (% of control) (human recombinant COX-2 [6]; 300 µM NSAID): 132±17 % of control
effect on rate of oxygenation of 2-AG (human recombinant COX-2 [6]; 300 µM compound, Fig. S1): appeared to increase the rate of oxygenation
effect on rate of oxygenation of AA (human recombinant COX-2 [7]; 10 µM compound, Fig. S2, preliminary, two experiments): appeared to increase the rate of oxygenation
COX-2 activity (% of control) (human recombinant COX-2 [7]; 100 µM NSAID): 132±16 % of control
COX-2 activity (% of control) (human recombinant COX-2 [7]; 300 µM NSAID): 139±41 % of control
inhibition at 300 µM (Ovine COX-1): 4%
urinary recovery [3]: 40%

NC(=O)c1cccc(-c2cccc(OC(=O)NC3CCCCC3)c2)c1 [URB597]
inhibition of AEA hydrolysis (FAAH): completely inhibits
activity towards NAAA (NAAA): lacks activity
